Assay results: US6235973A, “Expression of magainin and PGL classes of antimicrobial peptide genes in plants, and their use in creating resistance to multiple plant pathogens” (Sanford Scientific, Inc., priority 1998, dated 2001)
“And” between values parts separate entries of the source, which are not always exact repeats. Equal entries are not always repeated. Residues, ends and D or L forms follow the SMILES beside them.

Legend:
Erwinia carotovora = assay: In vitro MIC, microtiter serial dilution; format: cell-based; conditions: inhibits all growth after 24 hrs
[1] = system: Pseudomonas syringae and Erwinia carotovora; conditions: for activity against log phase-grown Pseudomomas and Erwinia: compared with MSI-99 and D5-C
[2] = system: Phytophthora parasitica (petunia); assay: In vitro MIC, microtiter serial dilution; format: cell-based; conditions: germinated
Rhizoctonia solani R2 = conditions: Rhizoctonia solani R2, mycelial fragments
Botrytis cinerea [3] = assay: Anti-Botrytis leaf disk bioassay, transgenic petunia; conditions: control = 100
Botrytis cinerea [4] = assay: Anti-Botrytis leaf disk bioassay, transgenic poinsettia; conditions: control = 100
Fusarium solani = assay: In vitro MIC, microtiter serial dilution; format: cell-based
Thielaviopsis basicola = assay: In vitro MIC, microtiter serial dilution; format: cell-based
[5] = system: Phytophthora parasitica (vinca); assay: In vitro MIC, microtiter serial dilution; format: cell-based
Botrytis cinerea [6] = assay: In vitro MIC, microtiter serial dilution; format: cell-based
Pseudomonas syringae = assay: In vitro MIC, microtiter serial dilution; format: cell-based; conditions: inhibits all growth after 24 hrs
Fusarium graminearum = format: cell-based; conditions: non-germinated
[7] = plasmid 144, three distinct plants
[8] = plasmid 143, three distinct plants

## CC[C@H](C)[C@H](NC(=O)[C@H](CCCCN)NC(=O)[C@H](CCCNC(=N)N)NC(=O)[C@H](C)NC(=O)[C@H](CC(C)C)NC(=O)[C@H](CCCCN)NC(=O)[C@H](CCCCN)NC(=O)[C@H](CC(C)C)NC(=O)[C@H](CCCNC(=N)N)NC(=O)[C@H](CCCNC(=N)N)NC(=O)CNC(=O)[C@@H](NC(=O)[C@H](CCCNC(=N)N)NC(=O)[C@H](CCCCN)NC(=O)[C@@H](NC(=O)[C@H](C)NC(=O)[C@H](CCCNC(=N)N)NC(=O)[C@H](CCCCN)NC(=O)[C@H](CCCNC(=N)N)NC(=O)[C@H](CCCCN)NC(=O)[C@@H](N)CCSC)C(C)C)C(C)C)C(=O)N[C@@H](C)C(=O)N[C@@H](CCCNC(=N)N)C(=O)N[C@@H](CC(C)C)C(=O)NCC(=O)N[C@H](C(=O)N[C@@H](C)C(=O)N[C@@H](Cc1ccccc1)C(=O)O)C(C)C [D5-C, reference compound] (H-MKRKRAVKRVGRRLKKLARKIARLGVAF-OH)
Erwinia carotovora
  Minimum Inhibitory Concentration: 2 µg/mL
[1]
  MIC: < 2 µg/mL
[2]
  Minimum Inhibitory Concentration: 16 to 32 µg/mL
Rhizoctonia solani R2
  Minimum Inhibitory Concentration: 32 to 64 µg/mL
Botrytis cinerea [3]; [7]
  Disease Incidence, percent leaf disks infected relative to untransformed control: 31% and 41% and 50%
Botrytis cinerea [3]; plasmid 148, three distinct plants
  Disease Incidence, percent leaf disks infected relative to untransformed control: 52% and 70% and 75%
Botrytis cinerea [4]; [7]
  Disease Incidence, percent leaf disks infected relative to untransformed control: 62% and 68% and 72%
Botrytis cinerea [4]; plasmid 165, three distinct plants
  Disease Incidence, percent leaf disks infected relative to untransformed control: 42% and 60% and 67%
Fusarium solani; germinated
  Minimum Inhibitory Concentration: 4 µg/mL
Fusarium solani; non-germinated
  Minimum Inhibitory Concentration: 4 µg/mL
Thielaviopsis basicola; germinated
  Minimum Inhibitory Concentration: 16 µg/mL
Thielaviopsis basicola; non-germinated
  Minimum Inhibitory Concentration: 16 µg/mL
[5]; germinated
  Minimum Inhibitory Concentration: 16 to 32 µg/mL
[5]; non-germinated
  Minimum Inhibitory Concentration: 16 µg/mL

## CC[C@H](C)[C@H](NC(=O)CNC(=O)[C@@H](N)CCSC)C(=O)NCC(=O)N[C@@H](CCCCN)C(=O)N[C@@H](Cc1ccccc1)C(=O)N[C@@H](CC(C)C)C(=O)N[C@@H](CCCCN)C(=O)N[C@@H](CO)C(=O)N[C@@H](C)C(=O)N[C@@H](CCCCN)C(=O)N[C@@H](CCCCN)C(=O)N[C@@H](Cc1ccccc1)C(=O)NCC(=O)N[C@@H](CCCCN)C(=O)N[C@@H](C)C(=O)N[C@@H](Cc1ccccc1)C(=O)N[C@H](C(=O)N[C@@H](CCCCN)C(=O)N[C@H](C(=O)N[C@@H](CC(C)C)C(=O)N[C@@H](CC(N)=O)C(=O)N[C@@H](CO)C(=O)O)[C@@H](C)CC)C(C)C [MSI-99] (H-MGIGKFLKSAKKFGKAFVKILNS-OH; N-terminus and C-terminus assumed)
Erwinia carotovora
  Minimum Inhibitory Concentration: 1 µg/mL
[1]
  MIC: < 2 µg/mL
[2]
  Minimum Inhibitory Concentration: 8 to 16 µg/mL
Rhizoctonia solani R2
  Minimum Inhibitory Concentration: 16 µg/mL
Botrytis cinerea [6]; germinated
  Minimum Inhibitory Concentration: 8 µg/mL
Botrytis cinerea [6]; non-germinated
  Minimum Inhibitory Concentration: 8 µg/mL
Botrytis cinerea [3]; [8]
  Disease Incidence, percent leaf disks infected relative to untransformed control: 26% and 30% and 31%
Botrytis cinerea [3]; plasmid 147, three distinct plants
  Disease Incidence, percent leaf disks infected relative to untransformed control: 36% and 60% and 70%
Pseudomonas syringae
  Minimum Inhibitory Concentration: 1 µg/mL
Fusarium graminearum
  Minimum Inhibitory Concentration: 4 µg/mL
Botrytis cinerea [4]; [8]
  Disease Incidence, percent leaf disks infected relative to untransformed control: 48% and 61% and 69%
Botrytis cinerea [4]; plasmid 168, three distinct plants
  Disease Incidence, percent leaf disks infected relative to untransformed control: 31% and 40% and 52%
Fusarium solani; germinated
  Minimum Inhibitory Concentration: 4 µg/mL
Fusarium solani; non-germinated
  Minimum Inhibitory Concentration: 2 µg/mL
Thielaviopsis basicola; germinated
  Minimum Inhibitory Concentration: 4 µg/mL
Thielaviopsis basicola; non-germinated
  Minimum Inhibitory Concentration: 4 µg/mL
[5]; germinated
  Minimum Inhibitory Concentration: 16 to 32 µg/mL
[5]; non-germinated
  Minimum Inhibitory Concentration: 64 µg/mL

## CC[C@H](C)[C@H](NC(=O)CNC(=O)[C@@H](N)CCSC)C(=O)NCC(=O)N[C@@H](CCCCN)C(=O)N[C@@H](Cc1ccccc1)C(=O)N[C@@H](CC(C)C)C(=O)N[C@@H](Cc1c[nH]cn1)C(=O)N[C@@H](CO)C(=O)N[C@@H](C)C(=O)N[C@@H](CCCCN)C(=O)N[C@@H](CCCCN)C(=O)N[C@@H](Cc1ccccc1)C(=O)NCC(=O)N[C@@H](CCCCN)C(=O)N[C@@H](C)C(=O)N[C@@H](Cc1ccccc1)C(=O)N[C@H](C(=O)NCC(=O)N[C@@H](CCC(=O)O)C(=O)N[C@H](C(=O)N[C@@H](CCSC)C(=O)N[C@@H](CC(N)=O)C(=O)N[C@@H](CO)C(=O)O)[C@@H](C)CC)C(C)C [Mag 2] (H-MGIGKFLHSAKKFGKAFVGEIMNS-OH; N-terminus and C-terminus assumed)
Erwinia carotovora
  Minimum Inhibitory Concentration: 32 µg/mL
[1]
  activity against log phase-grown Pseudomomas and Erwinia: significantly less active
[2]
  Minimum Inhibitory Concentration: > 128 µg/mL
Rhizoctonia solani R2
  Minimum Inhibitory Concentration: 16 to 32 µg/mL
Botrytis cinerea [6]; germinated
  Minimum Inhibitory Concentration: 8 µg/mL
Botrytis cinerea [6]; non-germinated
  Minimum Inhibitory Concentration: 8 to 16 µg/mL
Pseudomonas syringae
  Minimum Inhibitory Concentration: 32 µg/mL
Fusarium graminearum
  Minimum Inhibitory Concentration: 4 µg/mL
Fusarium solani; germinated
  Minimum Inhibitory Concentration: 4 to 8 µg/mL
Fusarium solani; non-germinated
  Minimum Inhibitory Concentration: 4 µg/mL
Thielaviopsis basicola; germinated
  Minimum Inhibitory Concentration: 4 µg/mL
Thielaviopsis basicola; non-germinated
  Minimum Inhibitory Concentration: 8 µg/mL
[5]; germinated
  Minimum Inhibitory Concentration: > 128 µg/mL
[5]; non-germinated
  Minimum Inhibitory Concentration: > 256 µg/mL

## CC[C@H](C)[C@H](NC(=O)[C@H](C)NC(=O)CNC(=O)[C@H](C)NC(=O)[C@H](CCCCN)NC(=O)[C@H](CO)NC(=O)[C@H](C)NC(=O)[C@H](CCSC)NC(=O)CN)C(=O)N[C@@H](C)C(=O)NCC(=O)N[C@@H](CCCCN)C(=O)N[C@H](C(=O)N[C@@H](C)C(=O)N[C@@H](CCCCN)C(=O)N[C@H](C(=O)N[C@@H](C)C(=O)N[C@@H](CC(C)C)C(=O)N[C@@H](CCCCN)C(=O)N[C@@H](C)C(=O)N[C@@H](CC(C)C)C(N)=O)C(C)C)[C@@H](C)CC [PGL] (H-GMASKAGAIAGKIAKVALKAL-NH2)
Erwinia carotovora
  Minimum Inhibitory Concentration: 32 µg/mL
[1]
  activity against log phase-grown Pseudomomas and Erwinia: significantly less active
[2]
  Minimum Inhibitory Concentration: > 128 µg/mL
Rhizoctonia solani R2
  Minimum Inhibitory Concentration: 16 to 32 µg/mL
Botrytis cinerea [6]; germinated
  Minimum Inhibitory Concentration: 8 µg/mL
Botrytis cinerea [6]; non-germinated
  Minimum Inhibitory Concentration: 4 to 8 µg/mL
Pseudomonas syringae
  Minimum Inhibitory Concentration: > 64 µg/mL
Fusarium graminearum
  Minimum Inhibitory Concentration: 4 to 8 µg/mL
Fusarium solani; germinated
  Minimum Inhibitory Concentration: 8 to 16 µg/mL
Fusarium solani; non-germinated
  Minimum Inhibitory Concentration: 4 µg/mL
Thielaviopsis basicola; germinated
  Minimum Inhibitory Concentration: 4 µg/mL
Thielaviopsis basicola; non-germinated
  Minimum Inhibitory Concentration: 4 to 8 µg/mL
[5]; germinated
  Minimum Inhibitory Concentration: > 128 µg/mL
[5]; non-germinated
  Minimum Inhibitory Concentration: > 256 µg/mL
